Laboratory results as given in patent publication EP2974743B1, “CYCLODEXTRIN CARRIER-BASED ARTEANNUIN COMPOUND CONJUGATE AND PREPARING METHOD THEREOF” (KPC Pharmaceuticals, Inc., priority 2012, dated 2014).

Columns and labels:
[1] = tested on: mouse hepatocarcinoma H22; settings: 300 mg/kg by gavage; cited from earlier work
solubility in water = format: physicochemical; settings: in words
Text: Also, the cyclodextrin carrier-based arteannuinoid compound is absorbed in merely a small amount when passing through stomach and small intestine of a human body, which is mainly absorbed by the large intestine, with a property of releasing in straight cecum. Therefore, the cyclodextrin carrier-based arteannuinoid compound according to the present disclosure can effectively enter the body of a patient, improving the bioavailability.

Lovo = experiment: MTT assay, tumor cell growth inhibition; format: cell-based; settings: human rectal cancer cells Lovo, 48h culture with compound
Procedure: (§1) For example, 180 µl suspension of human rectal cancer cells HCT116, Lovo, SW480 and HT29 (at a concentration of 4×10^4/mL) was added to a 96 well plate, and pre-cultured under 5% CO2, 37°C and saturated moisture for 24h. 150 µl medium was replaced, and 20 µl medium containing molecular assembly at different concentrations was added. The cells were cultured for another 48h, with the medium free of a sample as a negative control, and a medium containing camptothecin, oxaliplatin or fluorouracil at different concentrations as positive controls. MTT assay was used to determine the OD value, and the growth inhibition rate was calculated. The inhibition of compounds at high, medium and low concentration on the tumor cell proliferation was observed. All the experiments above were performed in triplet. The results of in vitro experiment of the arteannuin cyclodextrin conjugate on human rectum and caecum cancer cell are shown in table 1. Table 1. The comparison of IC50 values (µM) for the cyclodextrin carrier-based arteannuinoid compound conjugate according to the present disclosure and some arteannuinoid compounds in several rectal cancer cells.

SW480 = experiment: MTT assay, tumor cell growth inhibition; format: cell-based; settings: human rectal cancer cells SW480, 48h culture with compound
Procedure: as §1

HCT116 = experiment: MTT assay, tumor cell growth inhibition; format: cell-based; settings: human rectal cancer cells HCT116, 48h culture with compound
Procedure: as §1

HT 90 = experiment: MTT assay, tumor cell growth inhibition; format: cell-based; settings: human rectal cancer cells HT 90 (text: HT29), 48h culture with compound
Procedure: as §1

solubility in water (solubility in water) | IC50 (Lovo) | IC50 (SW480) | IC50 (HCT116) | IC50 (HT 90) | Molecule | anti-tumor rate [1]
almost insoluble in water |  |  |  |  | C[C@H]1[C@H](OC(=O)CCC(=O)O)O[C@@H]2O[C@@]3(C)CC[C@H]4[C@H](C)CC[C@@H]1[C@@]24OO3 [artesunate] | above 40%
 | 0.72 µM | 3.92 µM | 0.84 µM | 5.3 µM | mono-6-artesunate-β-cyclodextrin conjugate [Example 1] | 
